Twelve molecules from US20240083861A1, “HSD17B13 INHIBITORS AND USES THEREOF” (FL2022-001, Inc., priority 2020, published 2024) can be followed below.

This assay has as its target T1, Recombinant human HSD17B13 enzyme (Homo sapiens, UniProt Q7Z5P4).
T1 sequence (Q7Z5P4 20-300): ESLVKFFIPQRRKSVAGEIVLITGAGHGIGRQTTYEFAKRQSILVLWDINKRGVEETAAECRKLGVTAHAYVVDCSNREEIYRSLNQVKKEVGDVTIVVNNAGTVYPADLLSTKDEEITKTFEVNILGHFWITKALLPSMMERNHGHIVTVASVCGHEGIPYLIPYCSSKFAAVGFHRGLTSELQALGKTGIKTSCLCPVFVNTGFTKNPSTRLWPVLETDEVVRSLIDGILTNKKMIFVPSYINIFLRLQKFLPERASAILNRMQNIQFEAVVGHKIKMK
Description: HSD17b13 NAD(P)H-Glo biochemical assay. The conditions noted are these: 50 uM estradiol, 1 mM NAD+, NAD(P)H-Glo luminescence; read-out: HSD17β13 IC50. In a few lines: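 Recombinant human HSD17B13 in 20 mM Tris pH7.4 with 0.002% Tween-20 and 0.02% BSA was preincubated with inhibitor for 20 minutes at RT. The reaction ran 3 hours at 37° C with 50 uM estradiol and 1 mM NAD+ (final). NADH formed was detected by NAD(P)H-Glo luminescence after 1 hour at RT.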
Regarding `Cn1nc(-c2cc(C(F)(F)F)c(F)c(O)c2F)c2cnc(N3CCC4(CCCC(=O)N4)CC3)nc21` [Compound 18.26, 9-(3-(2,4-Difluoro-3-hydroxy-5-(trifluoromethyl)phenyl)-1-methyl-1H-pyrazolo[3,4-d]pyrimidin-6-yl)-1,9-diazaspiro[5.5]undecan-2-one], the IC50 was less than 100 nM.
In the case of `CC(C)C(=O)NC1CCN(c2ncc3c(-c4cc(C(F)(F)F)c(F)c(O)c4F)nn(C)c3n2)CC1` [Compound 18.27, N-(1-(3-(2,4-Difluoro-3-hydroxy-5-(trifluoromethyl)phenyl)-1-methyl-1H-pyrazolo[3,4-d]pyrimidin-6-y1)piperidin-4-yl)isobutyramide] it was less than 100 nM; in that of `CC(=O)N(C)C1CCN(c2ncc3c(-c4cc(C(F)(F)F)c(F)c(O)c4F)nn(C)c3n2)CC1` [Compound 18.28, N-(1-(3-(2,4-Difluoro-3-hydroxy-5-(trifluoromethyl)phenyl)-1-methyl-1H-pyrazolo[3,4-d]pyrimidin-6-yl)piperidin-4-y1)-N-methylacetamide], less than 100 nM.
The value for `CNC1CCN(c2ncc3c(-c4cc(C(F)(F)F)c(F)c(O)c4F)nn(C)c3n2)CC1` [Compound 18.29, 2,6-Difluoro-3-(1-methyl-6-(4-(methylamino)piperidin-1-yl)-1H-pyrazolo[3,4-d]pyrimidin-3-y1)-5-(trifluoromethyl)phenol] was 100 to 1000 nM; that for `Cn1nc(-c2cc(C(F)(F)F)c(F)c(O)c2F)c2cnc(N3CCC(C(=O)O)CC3)nc21` [Compound 18.30, 1-(3-(2,4-Difluoro-3-hydroxy-5-(trifluoromethyl)phenyl)-1-methyl-1H-pyrazolo[3,4-d]pyrimidin-6-y1)piperidine-4-carboxylic Acid] was 100 to 1000 nM.
The value for `CN(C)C1CCN(c2ncc3c(-c4cc(C(F)(F)F)c(F)c(O)c4F)nn(C)c3n2)CC1` [Compound 18.31, 3-(6-(4-(Dimethylamino)piperidin-1-y1)-1-methyl-1H-pyrazolo[3,4-d]pyrimidin-3-y1)-2,6-difluoro-5-(trifluoromethyl)phenol] was 100 to 1000 nM; that for `Cn1nc(-c2cc(C(F)(F)F)c(F)c(O)c2F)c2cnc(N3CCOC(c4ccccc4)C3)nc21` (stereo not drawn) [Compound 18.32, 2,6-Difluoro-3-(1-methyl-6-(2-phenylmorpholino)-1H-pyrazolo[3,4-d]pyrimidin-3-y1)-5-(trifluoromethyl)phenol] was less than 100 nM.
`CN(C)CC1CN(c2ncc3c(-c4cc(C(F)(F)F)c(F)c(O)c4F)nn(C)c3n2)CCO1` (stereo not drawn) [Compound 18.33, 3-(6-(2-((Dimethylamino)methyl)morpholino)-1-methyl-1H-pyrazolo[3,4-d]pyrimidin-3-y1)-2,6-difluoro-5-(trifluoromethyl)phenol]: the IC50 fell in the range of 100 to 1000 nM.
In the case of `CN(C)CC1CCN(c2ncc3c(-c4cc(C(F)(F)F)c(F)c(O)c4F)nn(C)c3n2)CC1` [Compound 18.34, 3-(6-(4-((Dimethylamino)methyl)piperidin-1-y1)-1-methyl-1H-pyrazolo[3,4-d]pyrimidin-3-y1)-2,6-difluoro-5-(trifluoromethyl)phenol] it was 100 to 1000 nM; in that of `Cn1nc(-c2cc(C(F)(F)F)c(F)c(O)c2F)c2cnc(N3CCCCC3)nc21` [Compound 18.35, 2,6-Difluoro-3-(1-methyl-6-(piperidin-1-yl)-1H-pyrazolo[3,4-d]pyrimidin-3-y1)-5-(trifluoromethyl)phenol], less than 100 nM.
The value for `Cn1nc(-c2cc(C(F)(F)F)c(F)c(O)c2F)c2cnc(N3CCC4(CCOCC4)CC3)nc21` [Compound 18.36, 2,6-Difluoro-3-(1-methyl-6-(3-oxa-9-azaspiro[5.5]undecan-9-yl)-1H-pyrazolo[3,4-d]pyrimidin-3-y1)-5-(trifluoromethyl)phenol] was less than 100 nM.
In the case of `Cn1nc(-c2cc(C(F)(F)F)c(F)c(O)c2F)c2cnc(N3CCC4(CCOC4)CC3)nc21` [Compound 18.37, 2,6-Difluoro-3-(1-methyl-6-(2-oxa-8-azaspiro[4.5]decan-8-yl)-1H-pyrazolo[3,4-d]pyrimidin-3-y1)-5-(trifluoromethyl)phenol] it was less than 100 nM.

In general, IC50 refers to the concentration that inhibits the measured activity by half.
